Earlier results as cited in article PMC6008465 (British Journal of Cancer, 2018).

Tested on: patients
Parameters: method as in Mekinist (trametinib) tablets package insert, Novartis 2017
Conditions: oral; ref Mekinist (trametinib) tablets package insert, Novartis 2017; cited from earlier work

CC(=O)Nc1cccc(-n2c(=O)n(C3CC3)c(=O)c3c(Nc4ccc(I)cc4F)n(C)c(=O)c(C)c32)c1 [trametinib]
Adverse events associated in clinical trials: retinal pigment epithelial detachment, retinal vein occlusion, interstitial lung disease, skin toxicity, and cardiomyopathy
